From ChEMBL document CHEMBL1201862, “PubChem BioAssay data set” (2004)
Active and inactive are the calls of the source. Cut-off read from the data, not from the text of the source, for most assays here: actives have a measured EC50 and inactives only a lower limit.

What was measured:
[1] = Luminescence Cell-Based Dose Retest to Confirm Inhibitors of Cancer Stem Cells. [Related pubchem assays (depositor defined):AID2717, AID2721]; type: functional; conditions: Homo sapiens
Fatty acid synthase [2] = molecular target: T1, Fatty acid synthase (Homo sapiens, UniProt P49327); test: FAS thioesterase domain inhibitors, dose response, biochemical, endpoint fluorescence intensity, uHTS hits (AID 624327); type: functional;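 note: fluorescence from hydrolysis of an O-methyl fluorescein acyl ester substrate by the enzyme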
Fatty acid synthase [3] = molecular target: T1, Fatty acid synthase; test: FAS thioesterase domain inhibitors, dose response, biochemical, kinetic fluorescence intensity (AID 624326); type: functional;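 note: rate of fluorescence rise from hydrolysis of a fluorogenic O-methyl fluorescein ester substrate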
BJ [4] = test: cytotoxicity toward BJ-TERT fibroblasts, dose response, cell-based, RAS-independent, luminescence (AID 1933); type: functional; conditions: Homo sapiens
BJ [5] = test: cells; type: functional, cell-based; conditions: Homo sapiens
BJ [6] = test: cytotoxicity toward BJ-TERT-LT-ST fibroblasts, dose response, cell-based, RAS-independent, luminescence (AID 1935); type: functional; conditions: Homo sapiens;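 note: BJ fibroblasts immortalized with TERT plus LT and ST oncogenes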
[7] = cytotoxicity toward DRD oncogenic fibroblasts, dose response, cell-based, non-viral oncogenic, luminescence (AID 1934); type: functional; conditions: Homo sapiens
[8] = molecular target: T2, Corticotropin-releasing factor receptor 2/Corticotropin-releasing factor-binding protein (Homo sapiens, UniProt P24387+Q13324); test: Dose Response confirmation of uHTS hits for small molecule antagonists of the CRF-binding protein and CRF-R2 receptor complex.; type: functional; conditions: read-out: IC50_Mean
T2 sequence (Q13324 whole entry): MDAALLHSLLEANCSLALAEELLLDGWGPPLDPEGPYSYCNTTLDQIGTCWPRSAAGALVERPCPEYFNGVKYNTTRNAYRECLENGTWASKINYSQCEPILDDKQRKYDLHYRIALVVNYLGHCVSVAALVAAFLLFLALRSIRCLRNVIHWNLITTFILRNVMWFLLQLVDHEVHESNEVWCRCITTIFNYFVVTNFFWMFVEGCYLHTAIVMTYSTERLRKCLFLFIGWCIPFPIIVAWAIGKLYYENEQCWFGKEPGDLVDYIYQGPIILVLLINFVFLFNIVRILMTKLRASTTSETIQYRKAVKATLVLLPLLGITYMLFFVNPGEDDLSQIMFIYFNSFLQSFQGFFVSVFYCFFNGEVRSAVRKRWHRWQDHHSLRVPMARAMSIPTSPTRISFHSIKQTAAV
T2 sequence (P24387 whole entry): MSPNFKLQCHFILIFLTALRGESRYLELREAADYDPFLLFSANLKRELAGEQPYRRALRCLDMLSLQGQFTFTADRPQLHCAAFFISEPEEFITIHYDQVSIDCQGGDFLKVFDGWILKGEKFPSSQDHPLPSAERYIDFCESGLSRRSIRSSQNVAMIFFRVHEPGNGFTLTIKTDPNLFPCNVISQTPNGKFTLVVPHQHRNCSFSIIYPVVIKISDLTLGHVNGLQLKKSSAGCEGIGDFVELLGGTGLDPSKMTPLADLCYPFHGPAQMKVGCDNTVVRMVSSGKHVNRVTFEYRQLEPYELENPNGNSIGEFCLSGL

[9] = molecular target: T2, Corticotropin-releasing factor receptor 2/Corticotropin-releasing factor-binding protein; test: activators of CRF receptor 2 with binding protein – uHTS hits, confirmation (AID 602473); type: functional; conditions: read-out: EC50_Mean
cells [10] = type: functional, cell-based
cells [11] = type: functional, cell-based; remark: listed apart in the source
[12] = CRF-BP/CRF-R2 complex antagonists, dose response, cell-based, uHTS hits, 384-well (AID 651639); type: functional, Homo sapiens; conditions: read-out: IC50_Mean
[13] = HEp-2 cell cytotoxicity, dose response, cytotoxicity control for RSV inhibitor project, HTS (AID 2410); type: functional; conditions: human respiratory syncytial virus
[14] = Luminescence Cell-Based Dose Confirmation HTS to Identify Activators of 5'UTR Stem-Loop Driven Alpha-Synuclein mRNA Translation in H4 Neuroglioblastoma Cells. [Related pubchem assays: 1829 (Project Summary), 1814 (Primary HTS)]; type: functional
[15] = Luminescence Cell-Based Dose Response HTS to Identify Activators of Luciferase Translation or Activity in H4 […] Cells. [Related pubchem assays: 1829 (Project Summary), 1814 (Primary HTS)]; type: functional
H4 = test: Luminescence Cell-Based Dose Response HTS to Identify Activators of 5'UTR Stem-Loop Driven Prion Protein mRNA Translation in H4 Neuroglioblastoma Cells. [Related pubchem assays: 1829 (Project Summary), 1814 (Primary HTS)]; type: functional; conditions: Homo sapiens
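Throughout, for AC50: cells exposed to compound for roughly 70 hours or longer before luminescence read.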

T1 sequence (P49327 whole entry, the tested form may be a part): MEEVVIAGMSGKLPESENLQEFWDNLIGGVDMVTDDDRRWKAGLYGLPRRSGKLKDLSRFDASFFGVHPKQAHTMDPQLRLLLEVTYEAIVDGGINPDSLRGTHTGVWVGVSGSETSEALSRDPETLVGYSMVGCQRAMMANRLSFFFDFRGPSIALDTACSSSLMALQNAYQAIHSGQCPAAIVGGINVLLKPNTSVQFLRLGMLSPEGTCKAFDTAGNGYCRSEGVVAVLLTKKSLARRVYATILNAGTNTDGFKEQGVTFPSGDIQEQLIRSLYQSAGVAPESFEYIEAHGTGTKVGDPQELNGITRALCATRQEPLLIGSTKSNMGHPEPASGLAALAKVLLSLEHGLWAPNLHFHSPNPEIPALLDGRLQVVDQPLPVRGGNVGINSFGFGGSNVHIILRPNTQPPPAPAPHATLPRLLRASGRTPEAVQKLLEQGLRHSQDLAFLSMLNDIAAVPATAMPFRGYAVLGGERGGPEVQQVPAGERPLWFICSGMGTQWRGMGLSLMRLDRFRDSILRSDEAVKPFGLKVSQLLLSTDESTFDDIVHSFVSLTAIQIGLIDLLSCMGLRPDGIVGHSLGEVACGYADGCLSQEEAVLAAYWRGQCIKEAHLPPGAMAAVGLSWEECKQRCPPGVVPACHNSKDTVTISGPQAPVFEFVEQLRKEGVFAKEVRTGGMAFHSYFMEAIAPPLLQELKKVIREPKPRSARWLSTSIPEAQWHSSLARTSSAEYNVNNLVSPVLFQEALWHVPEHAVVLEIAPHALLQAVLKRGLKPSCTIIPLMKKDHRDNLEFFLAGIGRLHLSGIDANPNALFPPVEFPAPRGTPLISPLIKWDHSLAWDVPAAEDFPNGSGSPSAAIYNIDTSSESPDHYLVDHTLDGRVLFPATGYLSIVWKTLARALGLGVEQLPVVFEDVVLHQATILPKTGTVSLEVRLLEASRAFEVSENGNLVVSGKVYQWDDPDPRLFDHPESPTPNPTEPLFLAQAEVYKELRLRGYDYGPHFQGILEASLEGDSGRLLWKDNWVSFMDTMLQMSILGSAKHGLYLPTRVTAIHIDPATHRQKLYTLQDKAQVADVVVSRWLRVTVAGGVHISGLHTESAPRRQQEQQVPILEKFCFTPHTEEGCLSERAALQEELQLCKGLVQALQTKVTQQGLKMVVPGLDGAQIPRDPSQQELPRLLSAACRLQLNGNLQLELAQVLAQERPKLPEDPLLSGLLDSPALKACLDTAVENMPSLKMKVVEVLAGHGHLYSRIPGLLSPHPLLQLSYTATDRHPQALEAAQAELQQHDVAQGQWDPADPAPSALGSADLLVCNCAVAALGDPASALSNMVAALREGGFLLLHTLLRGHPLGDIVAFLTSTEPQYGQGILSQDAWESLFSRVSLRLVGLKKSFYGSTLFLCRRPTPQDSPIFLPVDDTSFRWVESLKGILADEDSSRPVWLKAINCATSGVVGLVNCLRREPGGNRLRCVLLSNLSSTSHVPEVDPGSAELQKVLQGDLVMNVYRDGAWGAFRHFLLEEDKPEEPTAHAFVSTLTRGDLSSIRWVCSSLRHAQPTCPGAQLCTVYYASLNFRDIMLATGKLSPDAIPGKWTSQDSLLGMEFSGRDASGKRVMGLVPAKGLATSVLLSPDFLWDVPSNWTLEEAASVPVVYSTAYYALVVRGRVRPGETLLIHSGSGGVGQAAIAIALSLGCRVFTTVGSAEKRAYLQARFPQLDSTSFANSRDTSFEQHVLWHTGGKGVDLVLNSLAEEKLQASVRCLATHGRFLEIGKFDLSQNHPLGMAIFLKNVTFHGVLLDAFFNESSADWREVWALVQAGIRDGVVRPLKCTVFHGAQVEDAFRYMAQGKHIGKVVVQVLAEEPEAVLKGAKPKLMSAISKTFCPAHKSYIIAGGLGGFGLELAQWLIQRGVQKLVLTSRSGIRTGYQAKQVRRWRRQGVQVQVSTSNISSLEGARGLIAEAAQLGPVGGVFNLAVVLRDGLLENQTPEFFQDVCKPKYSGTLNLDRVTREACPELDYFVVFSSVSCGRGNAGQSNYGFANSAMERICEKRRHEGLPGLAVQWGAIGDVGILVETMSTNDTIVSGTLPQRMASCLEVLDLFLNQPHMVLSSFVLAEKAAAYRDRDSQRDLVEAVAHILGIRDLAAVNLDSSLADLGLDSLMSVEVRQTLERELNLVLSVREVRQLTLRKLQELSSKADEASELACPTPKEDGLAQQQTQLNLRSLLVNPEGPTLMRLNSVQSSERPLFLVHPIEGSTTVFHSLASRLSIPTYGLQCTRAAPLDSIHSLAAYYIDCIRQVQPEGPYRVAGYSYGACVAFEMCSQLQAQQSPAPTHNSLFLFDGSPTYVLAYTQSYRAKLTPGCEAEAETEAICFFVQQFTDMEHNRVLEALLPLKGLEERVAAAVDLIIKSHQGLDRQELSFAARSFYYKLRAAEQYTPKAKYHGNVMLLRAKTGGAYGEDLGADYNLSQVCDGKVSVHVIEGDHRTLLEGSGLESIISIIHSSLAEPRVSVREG

O=[N+]([O-])c1cccc(C2NCC(c3ccccc3Cl)c3c2[nH]c2ccccc32)c1 (centres undefined)
AC50 [1]: 2.69 µM (active)

COc1ccc2c(c1)C(=O)N1[C@H]3c4cc(Cl)ccc4OC[C@@H]3[C@H](c3ccccc3)[C@]1(C)C(=O)N2
IC50 (Fatty acid synthase [2]): 16.5 µM (active)
IC50 (Fatty acid synthase [3]): 18.8 µM (active)

C=CCC[C@@H](Cc1ccc(F)cc1)C(=O)OC[C@H](Cc1c[nH]c2ccccc12)NC(=O)[C@H](CC=C)CC(=O)NCCO
IC50 (Fatty acid synthase [2]): 10.9 µM (active)
IC50 (Fatty acid synthase [3]): 6.03 µM (active)

COc1cc(NC(=O)CSc2nc3ccccc3n2-c2ccccc2)c(C)cc1[N+](=O)[O-]
EC50 (BJ [4]): > 150 µM (not active)
EC50 (BJ [5]): > 150 µM (not active)
EC50 (BJ [6]): > 150 µM (inconclusive)
EC50 [7]: > 150 µM (not active)
IC50 [8]: > 47.1 µM (inactive)
EC50 [9]: > 53 µM (inactive)

CC(C)Sc1nc(N)c2c3c(sc2n1)CN(C)CC3
EC50 (cells [10]): > 350 µM (not active)
EC50 (cells [11]): > 350 µM (not active)

COc1ccc(NC(=O)CCCCC(=O)Nc2ccc(OC)cc2OC)c(OC)c1
IC50 [8]: < 0.368 µM (active)
EC50 [9]: > 53 µM (inactive)
IC50 [12]: > 20 µM (inactive)

O=C(/C=C/c1ccc(Cl)c([N+](=O)[O-])c1)Nc1cccc(NC(=O)c2ccco2)c1
CC50 [13]: 21.2 µM (active)
AC50 [1]: 2.56 µM (active)

CCOC(=O)C(CCCCOc1ccc([N+](=O)[O-])cc1)C(=O)OCC
IC50 [8]: 25.9 µM (active)
EC50 [9]: > 53 µM (inactive)
IC50 [12]: > 20 µM (inactive)

Cc1cccc(-n2ncc3c(NCc4ccco4)ncnc32)c1
EC50 [14]: 4.04 µM (active)
EC50 [15]: 49.1 µM (active)
EC50 (cells [10]): > 350 µM (not active)
EC50 (H4): 64.9 µM (active)
EC50 (cells [11]): 88.7 µM (active)

COc1ccc(C2N(Cc3ccccc3)CC(=O)N2/N=C(\C)c2ccccc2)cc1 (centres undefined)
IC50 [8]: 13.8 µM (active)
EC50 [9]: > 53 µM (inactive)
IC50 [12]: 4.93 µM (active)

Cc1onc(-c2ccccc2)c1C(=O)Nc1ccc(S(=O)(=O)N2CCCC2)cc1
EC50 (cells [10]): > 350 µM (not active)
EC50 (cells [11]): > 350 µM (not active)

CCCCCCCCCCCC(=O)NC(Cc1ccc(OC)c([N+](=O)[O-])c1)C(=O)O (centres undefined)
IC50 [8]: 11.6 µM (active)
EC50 [9]: > 53 µM (inactive)
IC50 [12]: > 20 µM (inactive)
